Where two headings read alike, the source gives them in different places.
Experiments:
[1] = biological target: M2 MspA (Mycolicibacterium smegmatis, UniProt A0QR29, D117N/D118N/D120N/D145R/D161R/E166K); experiment: NMP sensing performed with M2 MspA (control without PBA); format: binding, Mycobacterium smegmatis; settings: NMP 1 mM in cis, +200 mV
Procedure: FIG. 44: NMP sensing performed with M2 MspA. (a-d) Representative traces of (a) CMP, (b) UMP, (c) AMP, (d) GMP sensing performed with M2 MspA. All measurements were carried out as described in Methods in Example 2 in a 1.5 M KCl buffer (1.5 M KCl, 10 mM MOPS, pH 7.0). A +200 mV bias was continually applied. NMPs were added to cis with a final concentration of 1 mM for each analyte.
(§1) NMPs consist of a ribose, a phosphate group and a nucleobase, serving as monomeric units of RNA. […] Experimentally, single channel recording was performed using MspA-PBA in a 1.5 M KCl buffer (1.5 M KCl, 10 mM MOPS, pH 7.0) (Methods in Example 2). A transmembrane potential of +200 mV was continually applied. Four canonical NMPs, adenine mononucleotide (AMP), guanine mononucleotide (GMP), cytosine mononucleotide (CMP) and uracil mononucleotide (UMP) were tested as analytes (FIG. 33d). Either type of NMP was added to cis at a final concentration of 300 μM. Subsequently, successive resistive pulses caused by either type of NMP were immediately observed (FIG. 33d). However, no events were observed when M2 MspA was tested, confirming that the PBA located at the pore constriction is critical in the generation of NMP sensing events (FIG. 44). At this condition, ˜1800 events/h were obtained from each pore. The pore could normally withstand a few hours of continuous measurement. Deoxyribonucleoside monophosphate (dNMP) fails to report any event when sensed by MspA-PBA (FIG. 45). This is expected because dNMPs have no cis-diol structure and can't form the boronate ester which is necessary for sensing. The molecular mechanism of sensing which results from reversible covalent bond formation between an NMP and the PBA at the pore constriction is thus confirmed.

[2] = biological target: T1, MspA-PBA (phenylboronic acid modified hetero-octameric (N90C)1(M2)7 MspA) (Mycolicibacterium smegmatis, UniProt A0QR29, D117C/D118N/D120N/D145R/D161R/E166K); format: binding, Mycobacterium smegmatis; settings: +200 mV; for 1/τoff / 1/τon / Calibration coefficient δ (NMP binding events per unit concentration per min): three independent measurements; for % Ib (percentage blockage) / S.D. (noise amplitude of blockage level) / τoff (mean dwell time) / τon (mean inter-event interval): N=3; for Calibration coefficient δ (NMP binding events per unit concentration per min): sole NMP 300 μM in cis
T1 construct: H6 (hexa-histidine) (C); 3-(maleimide) phenylboronic acid (MPBA) adduct on the thiol of Cys90; made in house; host or cells: E. coli BL21 (DE3) pLysS, co-expression from pETDuet-1
Procedure: FIG. 46: Definition of event parameters. […] The measurement was carried out as described in Methods in Example 2. The chambers were filled with a 1.5 M KCl buffer (1.5 M KCl, 10 mM MOPS, pH 7.0). A transmembrane potential of +200 mV was continually applied. AMP was added to cis with a final concentration of 300 μM. The open pore current (Ip), the residual current (Ib), the dwell time (τoff) and the inter-event duration (τon) are defined as marked on the trace. The percentage blockage (% Ib) is defined as (Ip−Ib)/Ip. The noise amplitude (S.D.) is defined as the standard deviation of the blockage level.
as §1
To describe NMP sensing events quantitatively, the event dwell time (τoff), the inter-event interval (τon), the percentage blockage (% Ib=(Ip−Ib)/Ip) and the noise amplitude (S.D.) were derived as described in FIG. 46. Generally, the histograms of τoff and τon show an exponential distribution, and could be fitted to derive the mean time constants τoff or τon, respectively. The histograms of % Ib and S.D. show a Gaussian distribution, which could be fitted to derive the mean percentage blockage % Ib and S.D., respectively. During NMP sensing, by varying the NMP concentrations in cis, the reciprocal of dwell time (1/τoff) remains constant, consistent with a unimolecular dissociation mechanism. Whereas the reciprocal of the inter-event interval (1/τon) linearly correlates with the NMP concentration in cis (Tables 8-11, FIG. 47-50), consistent with a bimolecular model. The dependence of the applied voltage during NMP sensing was investigated using AMP as a representative analyte. […] This is expected because in a pH 7.0 buffer, the phosphate group of NMP is negatively charged and the electrophoretic force applied on the NMP analyte can strongly regulate the rate of event appearance and the event dwell time.

Sequence of M2 MspA (A0QR29 28-211 D117N/D118N/D120N/D145R/D161R/E166K): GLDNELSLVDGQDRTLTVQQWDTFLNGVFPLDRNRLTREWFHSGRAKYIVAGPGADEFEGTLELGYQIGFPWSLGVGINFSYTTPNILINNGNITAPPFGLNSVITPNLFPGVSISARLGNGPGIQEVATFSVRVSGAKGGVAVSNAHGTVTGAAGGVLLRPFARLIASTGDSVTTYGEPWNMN

Row | SMILES | binding events with M2 MspA [1] | 1/τoff ([2]; NMP 100 μM in cis) [s⁻¹] | 1/τon ([2]; NMP 100 μM in cis) [s⁻¹] | 1/τoff ([2]; NMP 200 μM in cis) [s⁻¹] | 1/τon ([2]; NMP 200 μM in cis) [s⁻¹] | % Ib (percentage blockage) ([2]; NMP 300 μM in cis) [%] | S.D. (noise amplitude of blockage level) ([2]; NMP 300 μM in cis) [pA] | τoff (mean dwell time) ([2]; NMP 300 μM in cis) [ms] | τon (mean inter-event interval) ([2]; NMP 300 μM in cis) [ms] | % Ib (percentage blockage) ([2]; NMP 300 μM in cis, listed as C) [%] | 1/τoff ([2]; NMP 300 μM in cis) [s⁻¹] | 1/τon ([2]; NMP 300 μM in cis) [s⁻¹] | 1/τoff ([2]; NMP 400 μM in cis) [s⁻¹] | 1/τon ([2]; NMP 400 μM in cis) [s⁻¹] | 1/τoff ([2]; NMP 500 μM in cis) [s⁻¹] | 1/τon ([2]; NMP 500 μM in cis) [s⁻¹] | Calibration coefficient δ (NMP binding events per unit concentration per min) [2] [µM⁻¹ min⁻¹] | % Ib (percentage blockage) ([2]; NMP 300 μM in cis, listed as G) [%] | % Ib (percentage blockage) ([2]; NMP 300 μM in cis, listed as U) [%]
1 | Nc1ccn([C@@H]2O[C@H](COP(=O)(O)O)[C@@H](O)[C@H]2O)c(=O)n1 [CMP, Cytidine-5′-monophosphate] | No binding events were observed | 19.0 ± 1.9 | 0.30 ± 0.06 | 20.9 ± 0.3 | 0.47 ± 0.05 | 7.1±0.2 | 3.23 ± 0.09 | 47.6 ± 0.9 | 1511.6 ± 108.3 | 7.1 ± 0.2 | 21.0 ± 0.4 | 0.66 ± 0.05 | 20.5 ± 0.6 | 0.86 ± 0.05 | 20.6 ± 1.1 | 1.01 ± 0.13 | 0.133 ± 0.010 |  | 
2 | Nc1nc2c(ncn2[C@@H]2O[C@H](COP(=O)(O)O)[C@@H](O)[C@H]2O)c(=O)[nH]1 [GMP, guanosine-5′-monophosphate] | No binding events were observed | 11.5 ± 0.9 | 0.02 ± 0.07 | 10.6 ± 1.4 | 0.50 ± 0.12 | 11.8±0.2 | 3.02 ± 0.13 | 96.3 ± 10.4 | 1473.1 ± 44.4 |  | 10.5 ± 1.1 | 0.68 ± 0.02 | 10.2 ± 0.2 | 0.83 ± 0.04 | 11.4 ± 1.3 | 1.00 ± 0.04 | 0.136 ± 0.004 | 11.8 ± 0.2 | 
3 | O=c1ccn([C@@H]2O[C@H](COP(=O)(O)O)[C@@H](O)[C@H]2O)c(=O)[nH]1 [UMP, uridine-5′-monophosphate] | No binding events were observed | 7.8 ± 0.9 | 0.28 ± 0.08 | 7.4 ± 1.4 | 0.36 ± 0.02 | 8.64±0.09 | 2.14 ± 0.06 | 130.3 ± 14.8 | 2097.9 ± 474.7 |  | 7.7 ± 0.9 | 0.49 ± 0.08 | 8.2 ± 0.4 | 0.56 ± 0.11 | 8.7 ± 0.4 | 0.68 ± 0.09 | 0.097 ± 0.014 |  | 8.64 ± 0.09
